# Reference: ChEMBL document CHEMBL1201862, “PubChem BioAssay data set” (2004)
# Several values for one entry are separate records, joined by “and”; a condition that tells them apart may be missing. Equal entries are not always repeated.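 Briefly, cells in 96-well plates were exposed to five compound concentrations for 48 h, and endpoints were estimated by linear interpolation. Abbreviation: GI50, concentration required for 50% inhibition of growth.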 Activity calls are given as the source filed them. Rule as the data show it: active = GI50 up to about 1.1 µM and inactive = higher.
# How the values were obtained:
# Assay in all cases: NCI tumour cell line growth inhibition, 48 h
# [1] = system: M14
# [2] = system: HCT-15
# [3] = system: 786-0
# [4] = system: SK-MEL-2
# [5] = system: SK-MEL-28
# [6] = system: MDA-N
# [7] = system: PC-3
# [8] = system: LOX IMVI
# [9] = system: NCI-H522
# [10] = system: IGROV-1
# [11] = system: MDA-MB-435
# [12] = system: SN12C
# [13] = system: NCI-H226
# [14] = system: HL-60
# [15] = system: SNB-19
# [16] = system: SF-295
# [17] = system: K562
# [18] = system: HOP-62
# [19] = system: SW-620
# [20] = system: ACHN
# [21] = system: OVCAR-3
# [22] = system: SK-OV-3
# [23] = system: HT-29
# [24] = system: EKVX
# [25] = system: UO-31
# [26] = system: SR
# [27] = system: SF-268
# [28] = system: MDA-MB-231
# [29] = system: MCF7
# [30] = system: UACC-62
# [31] = system: NCI/ADR-RES
# [32] = system: HCT-116
# [33] = system: Malme-3M
# [34] = system: A549
# [35] = system: SK-MEL-5
# [36] = system: CAKI-1
# [37] = system: DU-145
# [38] = system: COLO 205
# [39] = system: OVCAR-5
# [40] = system: OVCAR-4
# [41] = system: TK-10
# [42] = system: Hs-578T
# [43] = system: NCI-H460
# [44] = system: KM12
# [45] = system: RPMI-8226
# [46] = system: SNB-75
# [47] = system: T47D
# [48] = system: CCRF-CEM
# [49] = system: HOP-92
# [50] = system: OVCAR-8
# [51] = system: HCC 2998
# [52] = system: MOLT-4
# [53] = system: NCI-H23
# [54] = system: U-251
# [55] = system: UACC-257
# [56] = system: BT-549
# [57] = system: RXF 393
# [58] = system: A498
# [59] = system: SF-539
smiles,measurement,setting,value
CCCC(=O)OC1CC(n2cc(F)c(=O)[nH]c2=O)OC1COP(=O)(OCC(Cl)(Cl)Cl)OCC(Cl)(Cl)Cl (centres undefined),GI50,[1],2.06 µM (inactive)
same,GI50,[2],22.1 µM
same,GI50,[3],310 nM (active)
same,GI50,[4],> 59.4 µM (inactive)
same,GI50,[5],12.3 µM (inactive)
same,GI50,[6],7.01 µM (inactive)
same,GI50,[7],7.74 µM (inactive)
same,GI50,[8],16.1 µM (inactive)
same,GI50,[9],5.51 µM (inactive)
same,GI50,[10],14.8 µM (inactive)
same,GI50,[11],18.2 µM (inactive)
same,GI50,[12],22 µM (inactive)
same,GI50,[13],65.2 µM (inactive)
same,GI50,[14],10.8 µM (inactive)
same,GI50,[15],3.15 µM (inactive)
same,GI50,[16],167 nM (active)
same,GI50,[17],> 10 µM (inactive)
same,GI50,[18],131 nM (active)
same,GI50,[19],19.9 µM (inactive)
same,GI50,[20],147 nM (active)
same,GI50,[21],4.24 µM (inactive)
same,GI50,[22],12.4 µM (inactive)
same,GI50,[23],13.7 µM (inactive)
same,GI50,[24],43.8 µM (inactive)
same,GI50,[25],490 nM (active)
same,GI50,[26],1.25 µM (inactive)
same,GI50,[27],766 nM (active)
same,GI50,[28],24.2 µM (inactive)
same,GI50,[29],69.7 nM (active)
same,GI50,[30],2.06 µM (inactive)
same,GI50,[31],1.17 µM (inactive)
same,GI50,[32],3.18 µM (inactive)
same,GI50,[33],5.41 µM (inactive)
same,GI50,[34],461 nM (active)
same,GI50,[35],2.44 µM (inactive)
same,GI50,[36],283 nM (active)
same,GI50,[37],0.938 µM (active)
same,GI50,[38],61.4 nM (active)
same,GI50,[39],28.4 µM (inactive)
same,GI50,[40],16.9 µM (inactive)
same,GI50,[41],22.5 µM (inactive)
same,GI50,[42],13.9 µM (inactive)
same,GI50,[43],35.1 nM (active)
same,GI50,[44],19.1 µM (inactive)
same,GI50,[45],1.47 µM (inactive)
same,GI50,[46],8.04 µM (inactive)
same,GI50,[47],20.7 µM (inactive)
same,GI50,[48],372 nM (active)
same,GI50,[49],4.99 µM (inactive)
same,GI50,[50],925 nM (active)
same,GI50,[51],< 10 nM (active)
same,GI50,[52],2.48 µM (inactive)
same,GI50,[53],11 µM (inactive)
same,GI50,[54],4.02 µM (inactive)
same,GI50,[55],21.7 µM (inactive)
CC(C)=CCC/C(C)=C\CCC1(C)OC(=O)C2CC21 (centres undefined),GI50,[4],45.6 µM (inactive)
same,GI50,[56],31.8 µM (inactive) and 34 µM (inactive)
same,GI50,[7],25.9 µM (inactive) and 35.4 µM (inactive)
same,GI50,[8],15 µM (inactive) and 27.7 µM (inactive)
same,GI50,[14],18.5 µM (inactive) and 12.3 µM (inactive)
same,GI50,[15],> 100 µM (inactive) and 71.1 µM (inactive)
same,GI50,[57],40.6 µM (inactive)
same,GI50,[17],22.4 µM (inactive) and 17.2 µM (inactive)
same,GI50,[18],> 100 µM (inactive) and 53.5 µM (inactive)
same,GI50,[21],51.5 µM (inactive) and 27.5 µM (inactive)
same,GI50,[25],44.4 µM (inactive) and 37.2 µM (inactive)
same,GI50,[27],> 100000 nM (inactive)
same,GI50,[28],50.5 µM (inactive)
same,GI50,[31],42.4 µM (inactive) and 33.3 µM (inactive)
same,GI50,[33],80.2 µM (inactive)
same,GI50,[35],43.6 µM (inactive) and 41.1 µM (inactive)
same,GI50,[36],23.8 µM (inactive) and 32.3 µM (inactive)
same,GI50,[37],92.7 µM (inactive)
same,GI50,[38],49.1 µM (inactive) and 59.8 µM (inactive)
same,GI50,[39],> 100 µM (inactive)
same,GI50,[41],56.6 µM (inactive)
same,GI50,[45],28.3 µM (inactive) and 19.7 µM (inactive)
same,GI50,[46],55.7 µM (inactive)
same,GI50,[47],> 100 µM (inactive) and 63.4 µM (inactive)
same,GI50,[58],98.9 µM (inactive)
same,GI50,[51],21.1 µM (inactive) and 36.1 µM (inactive)
same,GI50,[52],18.1 µM (inactive) and 22.7 µM (inactive)
same,GI50,[53],28.7 µM (inactive) and 40.4 µM (inactive)
same,GI50,[55],73.6 µM (inactive) and 47.3 µM (inactive)
COc1ccc(-c2c(C#N)c(N)n(C3OC(COC(C)=O)C(OC(C)=O)C(OC(C)=O)C3OC(C)=O)c(=S)c2C#N)cc1 (centres undefined),GI50,[2],50.2 µM
same,GI50,[3],27.7 µM (inactive) and 28.6 µM (inactive)
same,GI50,[4],22.8 µM (inactive) and 24.2 µM (inactive)
same,GI50,[56],26.1 µM (inactive) and 26.7 µM (inactive)
same,GI50,[7],35.8 µM (inactive) and 37.8 µM (inactive)
same,GI50,[8],34.3 µM (inactive) and 32.9 µM (inactive)
same,GI50,[9],23.3 µM (inactive) and 25.6 µM (inactive)
same,GI50,[12],76.4 µM (inactive) and 43.3 µM (inactive)
same,GI50,[13],50.1 µM (inactive) and 91 µM (inactive)
same,GI50,[15],40 µM (inactive) and 55.8 µM (inactive)
same,GI50,[16],40.5 µM (inactive) and 35.7 µM (inactive)
same,GI50,[57],29.5 µM (inactive) and 24.5 µM (inactive)
same,GI50,[18],28.6 µM (inactive) and 19.8 µM (inactive)
same,GI50,[19],> 100 µM (inactive)
same,GI50,[20],50.8 µM (inactive) and 33.6 µM (inactive)
same,GI50,[22],29.4 µM (inactive) and 26.2 µM (inactive)
same,GI50,[24],26.5 µM (inactive) and 30 µM (inactive)
same,GI50,[27],21.4 µM (inactive) and 25.5 µM (inactive)
same,GI50,[28],27.9 µM (inactive) and 29.9 µM (inactive)
same,GI50,[29],29 µM (inactive) and 22.2 µM (inactive)
same,GI50,[30],20.8 µM (inactive) and 20 µM (inactive)
same,GI50,[31],> 100 µM (inactive) and 75.2 µM (inactive)
same,GI50,[32],55.5 µM (inactive) and 39.4 µM (inactive)
same,GI50,[33],43.9 µM (inactive) and 23.9 µM (inactive)
same,GI50,[35],23.4 µM (inactive) and 21.7 µM (inactive)
same,GI50,[59],22.9 µM (inactive) and 40.1 µM (inactive)
same,GI50,[36],34.6 µM (inactive) and 53.1 µM (inactive)
same,GI50,[40],24.4 µM (inactive) and 23.4 µM (inactive)
same,GI50,[42],36.6 µM (inactive) and 27.4 µM (inactive)
same,GI50,[43],47 µM (inactive) and 61.4 µM (inactive)
same,GI50,[45],26.1 µM (inactive) and 30.8 µM (inactive)
same,GI50,[46],17.5 µM (inactive) and 15.6 µM (inactive)
same,GI50,[47],18.6 µM (inactive) and 28.3 µM (inactive)
same,GI50,[58],33.7 µM (inactive) and 28.6 µM (inactive)
same,GI50,[49],17.1 µM (inactive) and 19.2 µM (inactive)
same,GI50,[50],34.2 µM (inactive) and 21.3 µM (inactive)
same,GI50,[51],30.3 µM (inactive) and 18.2 µM (inactive)
same,GI50,[53],44 µM (inactive) and 58.6 µM (inactive)
same,GI50,[54],46.5 µM (inactive) and 31.7 µM (inactive)
same,GI50,[55],43.1 µM (inactive) and 23.7 µM (inactive)
